Laboratory results from patent US10072017B2, “Compounds and methods for the treatment of cystic fibrosis” (Flatley Discovery Lab, LLC, priority 2015, dated 2018).

Target: T1, CFTR (Homo sapiens, UniProt P13569, DEL508-508)
T1 construct: Primary CF airway epithelial cells were obtained from the UNC Cystic Fibrosis Tissue Procurement and Cell Culture Core; host or cells: primary CF airway epithelial cells
Test: Equivalent current assay in Primary CF airway epithelial cells (NAUC)
Type: cell-based
Conditions: 24 h, normalized to VX809 (3 μM) positive control; for Nauc @ 3 μM: 3 μM test compound; for Nauc @ 10 μM: 10 μM test compound
Method: Primary CF airway epithelial cells were obtained from the UNC Cystic Fibrosis Tissue Procurement and Cell Culture Core. The cells are grown at 37° C. in a Heracell 150i incubator using growth media (BEGM, Fischer). Cells were then transferred to differentiation media (ALI, UNC) for a minimum of 4 weeks on coated Costar snapwells. Two days before the Ussing assay the mucus on the apical surface of the cells was aspirated after incubating with 200 μL of differentiation Media for at least thirty (30) minutes. One day before the Ussing assay test compounds were added to the basolateral surface of the cells at various test concentrations dissolved in DMSO. Duplicate wells were prepared giving a n=3 or n=4 protocol.
Cells were treated for 24 hours with various combinations and concentrations of the test articles, reference standard (3 μM VX809, positive control). Compounds stock solutions were prepared in DMSO and diluted 1/1000 into ALI media to their final assay concentration. Cells were treated with combination solutions (2 mL of each dilution) and incubated at 37° C. for 24 h.
For the equivalent current assay, cells on four Transwell (24-well) plates were treated. Each Transwell plate was filled with 200 μl of HBS on the apical surface and 2 ml on the basolateral surface. Plates were placed horizontally in a heated mount at 37° C., and equilibrated for several minutes. Resting current was measured for 15 min and then blocked by the apical addition of 5 μM benzamil. After 20 min, 10 μM forskolin and 1 μM VX770 were added to both the apical and basolateral side to stimulate CFTR. An increase in chloride current is seen as an upward deflection of the trace. After another 30 min, CFTR-172 (a CFTR inhibitor, 20 μM) and/or bumetanide (20 uM) was added to block CFTR mediated chloride current.
The raw data, current vs. time for the Ussing chamber (sampling interval: 10 s) and voltage vs. time and resistance vs. time for the equivalent current assay (sampling interval: 5 minutes) were transferred to Excel (Microsoft Office Professional, version 14.0.7106.5003) for analysis. CFTR specific current was measured as the average amplitude of the increase in current elicited upon addition forskolin and ending upon addition of the CFTR channel specific blocker CFTR-172. This average is equivalent to the sum of the average forskolin activated and the average VX770-potentiated currents. The average current measured in vehicle (0.1% DMSO) treated cells, Iv, was subtracted from the current for the test article, ITA, or from the corrector reference standard VX809 (3 uM ISTD. For replicate measurements, the average vehicle subtracted response for the test article, was normalized to the average vehicle subtracted inhibitor response of the reference corrector VX809 (3 μM). INSC=(ITA−IV)(ave)/(ISTD−IV)(ave) (Equation 1)
A second endpoint, for the equivalent current assay, evaluated was NAUC, the normalized area under the curve (AUC) measuring the response after addition of forskolin and VX770 to the time point right before the addition of the CFTR inhibitor. The AUC is effectively the average response multiplied by the duration of the response. The AUC of the test article, AUCTA was then corrected by subtracting the average vehicle response, AUCV,ave over the same time range, and normalized as for the inhibitor-sensitive current to the difference of the corrector reference standard VX809 (3 μM VX809r,ave and the vehicle response: NAUCTA=[AUCTA−AUCV,ave]/[AUCVx809r,ave−AUCV,ave] (Equation 2).
The normalized value for DMSO is 0.0 and for VX-809 alone is 1.0. Combinations of compounds with VX-809 that give normalized values greater than 1.0 show activity in the combination assay. A value of 2 means the test compound doubles the effect to VX-809 alone.
Experiments were run with a minimum of n=4 replicates per concentration. […]

T1 sequence (P13569 with tags, fused parts or gaps DEL508-508): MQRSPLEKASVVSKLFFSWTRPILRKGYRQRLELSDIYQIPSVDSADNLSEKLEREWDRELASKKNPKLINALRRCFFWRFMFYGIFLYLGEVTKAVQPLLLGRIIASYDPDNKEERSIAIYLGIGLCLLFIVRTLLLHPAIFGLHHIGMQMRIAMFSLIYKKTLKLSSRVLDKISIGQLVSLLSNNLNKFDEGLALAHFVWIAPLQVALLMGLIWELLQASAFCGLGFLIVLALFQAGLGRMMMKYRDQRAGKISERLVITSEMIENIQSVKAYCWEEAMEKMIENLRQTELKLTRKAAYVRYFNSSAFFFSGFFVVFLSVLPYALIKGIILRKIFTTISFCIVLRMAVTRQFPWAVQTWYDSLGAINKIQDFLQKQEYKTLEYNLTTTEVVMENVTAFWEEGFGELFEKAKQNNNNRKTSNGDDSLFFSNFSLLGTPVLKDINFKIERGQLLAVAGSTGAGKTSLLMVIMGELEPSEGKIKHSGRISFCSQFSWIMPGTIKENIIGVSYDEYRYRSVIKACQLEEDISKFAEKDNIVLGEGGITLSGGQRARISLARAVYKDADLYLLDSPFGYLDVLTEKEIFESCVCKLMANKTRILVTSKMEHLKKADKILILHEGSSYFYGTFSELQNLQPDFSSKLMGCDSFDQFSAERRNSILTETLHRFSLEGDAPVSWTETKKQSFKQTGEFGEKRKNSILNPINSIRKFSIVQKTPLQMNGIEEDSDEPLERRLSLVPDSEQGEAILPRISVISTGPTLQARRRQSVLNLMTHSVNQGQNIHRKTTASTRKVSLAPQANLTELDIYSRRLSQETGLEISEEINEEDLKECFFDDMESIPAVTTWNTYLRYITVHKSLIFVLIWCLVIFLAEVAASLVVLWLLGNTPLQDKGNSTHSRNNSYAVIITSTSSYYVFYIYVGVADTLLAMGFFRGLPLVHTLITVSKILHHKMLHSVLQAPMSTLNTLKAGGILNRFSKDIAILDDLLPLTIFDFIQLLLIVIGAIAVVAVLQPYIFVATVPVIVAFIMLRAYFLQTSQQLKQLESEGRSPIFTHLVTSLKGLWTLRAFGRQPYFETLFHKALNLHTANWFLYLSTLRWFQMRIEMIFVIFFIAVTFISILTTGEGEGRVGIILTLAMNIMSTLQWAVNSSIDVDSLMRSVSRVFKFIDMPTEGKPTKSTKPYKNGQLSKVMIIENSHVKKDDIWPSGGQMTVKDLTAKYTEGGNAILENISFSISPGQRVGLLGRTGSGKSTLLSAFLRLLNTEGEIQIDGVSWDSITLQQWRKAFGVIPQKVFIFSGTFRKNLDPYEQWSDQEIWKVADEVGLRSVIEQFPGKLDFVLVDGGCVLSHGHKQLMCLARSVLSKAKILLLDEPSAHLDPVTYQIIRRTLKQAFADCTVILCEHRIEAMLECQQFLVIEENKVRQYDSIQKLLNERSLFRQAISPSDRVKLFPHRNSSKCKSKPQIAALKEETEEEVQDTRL

SMILES	Nauc @ 3 μM	Nauc @ 10 μM
[2H]C12C(=O)N(c3cc(Cl)cc(Cl)c3)C(=O)C1([2H])C1(C(=O)Nc3c(Cl)cc(Cl)cc31)N1CCCC12 (single isomer, unassigned) [Example 70]	+++ (NAUC “+++” refers to an observed NAUC >170% of positive control)	+++ (NAUC “+++” refers to an observed NAUC >170% of positive control)
CC1CC2C3C(=O)N(c4cc(Cl)cc(Cl)c4)C(=O)C3C3(C(=O)Nc4c(Cl)cc(Cl)cc43)N2C1 (single isomer, unassigned) [Example 72]	+++ (NAUC “+++” refers to an observed NAUC >170% of positive control)	+ (NAUC “+” refers to an observed NAUC <140% of positive control)
[2H]C12C(=O)N(c3cc(Cl)cc(Cl)c3)C(=O)C1([2H])C1(C(=O)Nc3c(Cl)cc(Cl)cc31)N1C[C@@H](O)CC12 (single isomer, unassigned) [Example 84]	++ (NAUC “++” refers to an observed NAUC 170-140% of positive control)	++ (NAUC “++” refers to an observed NAUC 170-140% of positive control)
O=C1C2C3C[C@H](Cl)CN3C3(C(=O)Nc4c(Cl)cc(Cl)cc43)C2C(=O)N1c1cc(Cl)cc(Cl)c1 (single isomer, unassigned) [Example 86]	+ (NAUC “+” refers to an observed NAUC <140% of positive control)	+++ (NAUC “+++” refers to an observed NAUC >170% of positive control)
O=C1C2C3C[C@H](Cl)CN3C3(C(=O)Nc4c(Cl)cc(Cl)cc43)C2C(=O)N1c1cc(Cl)cc(Cl)c1 (single isomer, unassigned) [Example 87]	+++ (NAUC “+++” refers to an observed NAUC >170% of positive control)	+++ (NAUC “+++” refers to an observed NAUC >170% of positive control)
O=C1C2C3C[C@H](Cl)CN3C3(C(=O)Nc4c(Cl)cc(Cl)cc43)C2C(=O)N1c1cc(Cl)cc(Cl)c1 (single isomer, unassigned) [Example 88]	+ (NAUC “+” refers to an observed NAUC <140% of positive control)	+++ (NAUC “+++” refers to an observed NAUC >170% of positive control)
COc1cc(Cl)cc(N2C(=O)C3C4CCCN4C4(C(=O)Nc5c(Cl)cc(Cl)cc54)C3C2=O)c1 (single isomer, unassigned) [Example 104]	+ (NAUC “+” refers to an observed NAUC <140% of positive control)	++ (NAUC “++” refers to an observed NAUC 170-140% of positive control)
COc1cc(Cl)cc(N2C(=O)C3C4CCCN4C4(C(=O)Nc5c(Cl)cc(Cl)cc54)C3C2=O)c1 (single isomer, unassigned) [Example 105]	++ (NAUC “++” refers to an observed NAUC 170-140% of positive control)	++ (NAUC “++” refers to an observed NAUC 170-140% of positive control)
COc1cc(Cl)cc(N2C(=O)C3C4CCCN4C4(C(=O)Nc5c(Cl)cc(Cl)cc54)C3C2=O)c1 (single isomer, unassigned) [Example 106]	+++ (NAUC “+++” refers to an observed NAUC >170% of positive control)	+++ (NAUC “+++” refers to an observed NAUC >170% of positive control)
COc1cc(Cl)cc(N2C(=O)C3C4C[C@H](Cl)CN4C4(C(=O)Nc5c(Cl)cc(Cl)cc54)C3C2=O)c1 (single isomer, unassigned) [Example 107]	+++ (NAUC “+++” refers to an observed NAUC >170% of positive control)	+++ (NAUC “+++” refers to an observed NAUC >170% of positive control)
O=C1C2C3C[C@H](Cl)CN3C3(C(=O)Nc4c(Cl)cc(Cl)cc43)C2C(=O)N1c1cc(Cl)cc(Cl)n1 (single isomer, unassigned) [Example 108]	+++ (NAUC “+++” refers to an observed NAUC >170% of positive control)	++ (NAUC “++” refers to an observed NAUC 170-140% of positive control)
COc1cc(Cl)cc(N2C(=O)C3C4C[C@H](F)CN4C4(C(=O)Nc5c(Cl)cc(Cl)cc54)C3C2=O)c1 (single isomer, unassigned) [Example 110]	+++ (NAUC “+++” refers to an observed NAUC >170% of positive control)	+++ (NAUC “+++” refers to an observed NAUC >170% of positive control)
COc1cc(Cl)cc(N2C(=O)C3C4C[C@H](Cl)CN4C4(C(=O)Nc5c(Cl)cc(Cl)cc54)C3C2=O)c1 (single isomer, unassigned) [Example 111]	+++ (NAUC “+++” refers to an observed NAUC >170% of positive control)	+++ (NAUC “+++” refers to an observed NAUC >170% of positive control)
COc1c(Cl)cc(N2C(=O)C3C4CCCN4C4(C(=O)Nc5c(Cl)cc(Cl)cc54)C3C2=O)cc1Cl (single isomer, unassigned) [Example 112]	+++ (NAUC “+++” refers to an observed NAUC >170% of positive control)	+++ (NAUC “+++” refers to an observed NAUC >170% of positive control)
COc1c(Cl)cc(N2C(=O)C3C4C[C@H](Cl)CN4C4(C(=O)Nc5c(Cl)cc(Cl)cc54)C3C2=O)cc1Cl (single isomer, unassigned) [Example 114]	+++ (NAUC “+++” refers to an observed NAUC >170% of positive control)	+++ (NAUC “+++” refers to an observed NAUC >170% of positive control)
COc1cc(Cl)cc(N2C(=O)C3C4C[C@H](O)CN4C4(C(=O)Nc5c(Cl)cc(Cl)cc54)C3C2=O)c1 (single isomer, unassigned) [Example 115]	+ (NAUC “+” refers to an observed NAUC <140% of positive control)	++ (NAUC “++” refers to an observed NAUC 170-140% of positive control)
O=C1C2C3CC(=C(F)F)CN3C3(C(=O)Nc4c(Cl)cc(Cl)cc43)C2C(=O)N1c1cc(Cl)cc(Cl)c1 (single isomer, unassigned) [Example 116]	+++ (NAUC “+++” refers to an observed NAUC >170% of positive control)	+++ (NAUC “+++” refers to an observed NAUC >170% of positive control)
COc1c(Cl)cc(N2C(=O)C3C4C[C@H](F)CN4C4(C(=O)Nc5c(Cl)cc(Cl)cc54)C3C2=O)cc1Cl (single isomer, unassigned) [Example 118]	++ (NAUC “++” refers to an observed NAUC 170-140% of positive control)	++ (NAUC “++” refers to an observed NAUC 170-140% of positive control)
CC1(C)CC2C3C(=O)N(c4cc(Cl)cc(Cl)c4)C(=O)C3C3(C(=O)Nc4c(Cl)cc(Cl)cc43)N2C1 (single isomer, unassigned) [Example 119]	+++ (NAUC “+++” refers to an observed NAUC >170% of positive control)	+++ (NAUC “+++” refers to an observed NAUC >170% of positive control)
